This note sets out measurements from ChEMBL document CHEMBL1154623, “S-glycosyl primary sulfonamides--a new structural class for selective inhibition of cancer-associated carbonic anhydrases” (J Med Chem, 2009).

One data set concerns the target Carbonic anhydrase 9 (Homo sapiens, UniProt Q16790).
A short description of data set [1]: Apparent effective permeability by PAMPA method. In kind it is ADME. Conditions: read-out: permeability.
A short description of data set [2]: Chemical stability during PAMPA assessed as compound degradation. In kind it is physicochemical. Conditions: read-out: Activity. Background: PAMPA measures passive passage across an artificial lipid membrane.

Description for Carbonic anhydrase 9: Inhibition of human cloned CA9 catalytic domain by stopped flow CO2 hydration assay

The Ki is the equilibrium dissociation constant of an inhibitor or competing ligand from its target. For `CC(=O)OC[C@H]1O[C@@H](O[C@H]2[C@H](OC(C)=O)[C@@H](OC(C)=O)[C@H](S(N)(=O)=O)O[C@@H]2COC(C)=O)[C@H](OC(C)=O)[C@@H](OC(C)=O)[C@H]1OC(C)=O`, the inhibitory constant (Ki) on Carbonic anhydrase 9 was 4.03 µM.

For the molecule `CC1(C)O[C@@H]2[C@@H](CO[C@@]3(COS(N)(=O)=O)OC(C)(C)O[C@@H]23)O1` [TOPIRAMATE], the Papp in data set [1] was 0.54 ×10⁻⁶ cm/s.

As for `CC(=O)Nc1nnc(S(N)(=O)=O)s1` [ACETAZOLAMIDE], the Papp in data set [1] is less than 0.15 ×10⁻⁶ cm/s.

Turning to `CC(=O)OC[C@H]1O[C@@H](S(N)(=O)=O)[C@H](OC(C)=O)[C@@H](OC(C)=O)[C@@H]1OC(C)=O`, the Ki on Carbonic anhydrase 9 came out at 3.91 µM. Also, the Papp in data set [1] was less than 0.1 ×10⁻⁶ cm/s. In addition, the degraded in data set [2] was 35%.

In the case of `CC(=O)OC[C@H]1O[C@@H](S(N)(=O)=O)[C@H](OC(C)=O)[C@@H](OC(C)=O)[C@@H]1O[C@H]1O[C@H](COC(C)=O)[C@@H](OC(C)=O)[C@H](OC(C)=O)[C@H]1OC(C)=O`, the affinity at Carbonic anhydrase 9, expressed as Ki, was 4.08 µM. Also, the Papp in data set [1] is less than 0.02 ×10⁻⁶ cm/s.

The molecule `NS(=O)(=O)[C@@H]1O[C@H](CO)[C@@H](O)[C@H](O)[C@H]1O` gave a Ki at Carbonic anhydrase 9 of 4.05 µM. Moreover, the Papp in data set [1] was less than 0.4 ×10⁻⁶ cm/s.

`COC(=O)[C@H]1O[C@@H](S(N)(=O)=O)[C@H](OC(C)=O)[C@@H](OC(C)=O)[C@@H]1OC(C)=O` came in with a Ki at Carbonic anhydrase 9 of 4.15 µM.

Take `NS(=O)(=O)[C@@H]1O[C@H](CO)[C@@H](O[C@@H]2O[C@H](CO)[C@H](O)[C@H](O)[C@H]2O)[C@H](O)[C@H]1O`: on Carbonic anhydrase 9, the Ki stood at 4.19 µM. The Ki values of the last two molecules are within 1.5-fold of each other.

On to `CC(=O)OC[C@H]1O[C@@H](S(N)(=O)=O)[C@H](OC(C)=O)[C@@H](OC(C)=O)[C@H]1OC(C)=O`, for which affinity at Carbonic anhydrase 9 was put at a Ki of 4.09 µM.

For `NS(=O)(=O)[C@@H]1O[C@H](CO)[C@@H](O[C@H]2O[C@H](CO)[C@@H](O)[C@H](O)[C@H]2O)[C@H](O)[C@H]1O`, the Ki at Carbonic anhydrase 9 is 4.22 µM. Besides, the Papp in data set [1] was less than 0.5 ×10⁻⁶ cm/s.

Molecule `NS(=O)(=O)[C@@H]1O[C@H](CO)[C@H](O)[C@H](O)[C@H]1O` had an inhibitory constant (Ki) on Carbonic anhydrase 9 of 4.19 µM.
